Measured values as given in article PMC9841527 (Journal of Medicinal Chemistry, 2022).

Tests used:
G9a = target: T1, G9a (Homo sapiens, UniProt Q96KQ7); experiment: Selectivity assay, G9a; format: biochemical; conditions: compound 10 μM, 3H-SAM 1 μM
T1 sequence (Q96KQ7 1-1210): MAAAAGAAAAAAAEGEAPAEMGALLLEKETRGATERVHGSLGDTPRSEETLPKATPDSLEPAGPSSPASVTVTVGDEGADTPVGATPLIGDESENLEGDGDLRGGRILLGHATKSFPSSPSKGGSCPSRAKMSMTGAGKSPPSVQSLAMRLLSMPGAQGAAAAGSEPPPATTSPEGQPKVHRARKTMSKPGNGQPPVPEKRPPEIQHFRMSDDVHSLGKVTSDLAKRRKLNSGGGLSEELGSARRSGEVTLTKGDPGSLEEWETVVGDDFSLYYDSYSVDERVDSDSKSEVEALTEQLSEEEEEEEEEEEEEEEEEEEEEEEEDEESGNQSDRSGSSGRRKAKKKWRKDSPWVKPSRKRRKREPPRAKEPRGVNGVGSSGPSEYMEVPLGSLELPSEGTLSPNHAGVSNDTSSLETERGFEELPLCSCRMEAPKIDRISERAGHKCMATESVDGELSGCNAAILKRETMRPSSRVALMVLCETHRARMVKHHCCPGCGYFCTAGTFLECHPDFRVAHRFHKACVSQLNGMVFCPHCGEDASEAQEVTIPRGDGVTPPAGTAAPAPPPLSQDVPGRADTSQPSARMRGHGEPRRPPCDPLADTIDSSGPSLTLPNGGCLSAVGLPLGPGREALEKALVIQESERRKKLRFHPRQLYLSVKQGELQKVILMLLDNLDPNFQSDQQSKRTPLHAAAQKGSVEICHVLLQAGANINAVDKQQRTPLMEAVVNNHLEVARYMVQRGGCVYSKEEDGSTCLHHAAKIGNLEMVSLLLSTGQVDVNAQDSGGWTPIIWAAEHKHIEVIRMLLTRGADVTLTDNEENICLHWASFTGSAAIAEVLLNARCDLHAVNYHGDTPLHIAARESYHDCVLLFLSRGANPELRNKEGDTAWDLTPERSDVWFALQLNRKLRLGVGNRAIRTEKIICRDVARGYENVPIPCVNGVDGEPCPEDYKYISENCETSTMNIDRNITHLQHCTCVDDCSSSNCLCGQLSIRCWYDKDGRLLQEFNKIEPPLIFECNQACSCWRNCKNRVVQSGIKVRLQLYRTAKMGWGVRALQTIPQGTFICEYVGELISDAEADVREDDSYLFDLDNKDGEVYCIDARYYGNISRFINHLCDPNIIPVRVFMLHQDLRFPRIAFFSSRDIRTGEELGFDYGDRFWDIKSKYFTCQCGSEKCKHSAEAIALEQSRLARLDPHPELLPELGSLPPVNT

DOT1L = DOT1L (Homo sapiens, UniProt Q8TEK3); experiment: Selectivity assay, DOT1L; format: biochemical; conditions: compound 10 μM, 3H-SAM 1 μM
Sequence of DOT1L (Q8TEK3 whole entry): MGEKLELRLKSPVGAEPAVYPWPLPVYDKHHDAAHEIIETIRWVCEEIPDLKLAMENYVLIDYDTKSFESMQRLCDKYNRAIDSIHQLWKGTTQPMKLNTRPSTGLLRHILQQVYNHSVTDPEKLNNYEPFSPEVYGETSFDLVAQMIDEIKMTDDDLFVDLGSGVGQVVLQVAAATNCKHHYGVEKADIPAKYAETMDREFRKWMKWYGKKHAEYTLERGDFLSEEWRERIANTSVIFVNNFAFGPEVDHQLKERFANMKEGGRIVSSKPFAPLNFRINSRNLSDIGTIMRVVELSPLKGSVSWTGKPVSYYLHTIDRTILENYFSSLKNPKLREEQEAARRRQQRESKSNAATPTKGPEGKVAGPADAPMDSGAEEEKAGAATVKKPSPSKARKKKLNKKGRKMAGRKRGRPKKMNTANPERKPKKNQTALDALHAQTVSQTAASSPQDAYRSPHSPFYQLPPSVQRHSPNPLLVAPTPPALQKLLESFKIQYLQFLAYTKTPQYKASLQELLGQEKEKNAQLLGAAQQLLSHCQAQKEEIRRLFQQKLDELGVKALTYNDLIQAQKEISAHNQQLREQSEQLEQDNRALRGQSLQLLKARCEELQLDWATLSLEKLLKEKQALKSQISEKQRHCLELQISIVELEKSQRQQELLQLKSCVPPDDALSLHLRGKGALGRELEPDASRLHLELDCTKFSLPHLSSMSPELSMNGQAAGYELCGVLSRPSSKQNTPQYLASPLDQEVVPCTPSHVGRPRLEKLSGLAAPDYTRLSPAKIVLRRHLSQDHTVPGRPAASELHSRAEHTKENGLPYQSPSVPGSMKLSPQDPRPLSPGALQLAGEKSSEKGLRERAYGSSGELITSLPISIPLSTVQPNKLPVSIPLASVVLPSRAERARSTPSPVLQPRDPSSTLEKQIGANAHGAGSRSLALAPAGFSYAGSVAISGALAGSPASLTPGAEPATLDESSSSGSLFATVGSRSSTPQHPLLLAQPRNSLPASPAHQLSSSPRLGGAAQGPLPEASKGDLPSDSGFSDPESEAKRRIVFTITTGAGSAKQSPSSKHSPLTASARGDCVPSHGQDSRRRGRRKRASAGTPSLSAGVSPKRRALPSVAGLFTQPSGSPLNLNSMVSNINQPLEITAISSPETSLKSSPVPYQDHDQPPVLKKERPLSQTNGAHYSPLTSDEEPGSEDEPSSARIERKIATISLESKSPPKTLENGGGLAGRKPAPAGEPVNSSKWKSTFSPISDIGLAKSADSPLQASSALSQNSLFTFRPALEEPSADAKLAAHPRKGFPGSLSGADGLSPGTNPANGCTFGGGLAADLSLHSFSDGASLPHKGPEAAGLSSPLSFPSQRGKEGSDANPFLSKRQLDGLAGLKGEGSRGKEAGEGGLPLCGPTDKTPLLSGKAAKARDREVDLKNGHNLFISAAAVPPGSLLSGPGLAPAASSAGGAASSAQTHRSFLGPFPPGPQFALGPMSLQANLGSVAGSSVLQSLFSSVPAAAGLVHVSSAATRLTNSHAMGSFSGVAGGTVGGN

CcrM = CcrM (Caulobacter vibrioides, UniProt P0CAW2); format: biochemical, Caulobacter crescentus
Sequence of CcrM (P0CAW2 whole entry): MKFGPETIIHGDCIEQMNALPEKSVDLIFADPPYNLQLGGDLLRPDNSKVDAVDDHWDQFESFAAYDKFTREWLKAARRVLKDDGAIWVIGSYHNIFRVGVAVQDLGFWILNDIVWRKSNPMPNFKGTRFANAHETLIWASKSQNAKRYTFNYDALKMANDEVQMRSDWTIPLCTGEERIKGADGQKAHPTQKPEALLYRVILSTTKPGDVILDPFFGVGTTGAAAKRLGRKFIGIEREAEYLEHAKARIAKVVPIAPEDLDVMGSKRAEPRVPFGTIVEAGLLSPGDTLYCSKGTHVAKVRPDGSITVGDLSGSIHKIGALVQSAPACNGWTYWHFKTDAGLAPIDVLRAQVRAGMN

DNMT1 = DNMT1 (Homo sapiens, UniProt P26358); experiment: Selectivity assay, DNMT1; format: biochemical; conditions: [I] = 10 μM, [SAM] = 5.5 μM, 37 °C
Sequence of DNMT1 (P26358 351-1600): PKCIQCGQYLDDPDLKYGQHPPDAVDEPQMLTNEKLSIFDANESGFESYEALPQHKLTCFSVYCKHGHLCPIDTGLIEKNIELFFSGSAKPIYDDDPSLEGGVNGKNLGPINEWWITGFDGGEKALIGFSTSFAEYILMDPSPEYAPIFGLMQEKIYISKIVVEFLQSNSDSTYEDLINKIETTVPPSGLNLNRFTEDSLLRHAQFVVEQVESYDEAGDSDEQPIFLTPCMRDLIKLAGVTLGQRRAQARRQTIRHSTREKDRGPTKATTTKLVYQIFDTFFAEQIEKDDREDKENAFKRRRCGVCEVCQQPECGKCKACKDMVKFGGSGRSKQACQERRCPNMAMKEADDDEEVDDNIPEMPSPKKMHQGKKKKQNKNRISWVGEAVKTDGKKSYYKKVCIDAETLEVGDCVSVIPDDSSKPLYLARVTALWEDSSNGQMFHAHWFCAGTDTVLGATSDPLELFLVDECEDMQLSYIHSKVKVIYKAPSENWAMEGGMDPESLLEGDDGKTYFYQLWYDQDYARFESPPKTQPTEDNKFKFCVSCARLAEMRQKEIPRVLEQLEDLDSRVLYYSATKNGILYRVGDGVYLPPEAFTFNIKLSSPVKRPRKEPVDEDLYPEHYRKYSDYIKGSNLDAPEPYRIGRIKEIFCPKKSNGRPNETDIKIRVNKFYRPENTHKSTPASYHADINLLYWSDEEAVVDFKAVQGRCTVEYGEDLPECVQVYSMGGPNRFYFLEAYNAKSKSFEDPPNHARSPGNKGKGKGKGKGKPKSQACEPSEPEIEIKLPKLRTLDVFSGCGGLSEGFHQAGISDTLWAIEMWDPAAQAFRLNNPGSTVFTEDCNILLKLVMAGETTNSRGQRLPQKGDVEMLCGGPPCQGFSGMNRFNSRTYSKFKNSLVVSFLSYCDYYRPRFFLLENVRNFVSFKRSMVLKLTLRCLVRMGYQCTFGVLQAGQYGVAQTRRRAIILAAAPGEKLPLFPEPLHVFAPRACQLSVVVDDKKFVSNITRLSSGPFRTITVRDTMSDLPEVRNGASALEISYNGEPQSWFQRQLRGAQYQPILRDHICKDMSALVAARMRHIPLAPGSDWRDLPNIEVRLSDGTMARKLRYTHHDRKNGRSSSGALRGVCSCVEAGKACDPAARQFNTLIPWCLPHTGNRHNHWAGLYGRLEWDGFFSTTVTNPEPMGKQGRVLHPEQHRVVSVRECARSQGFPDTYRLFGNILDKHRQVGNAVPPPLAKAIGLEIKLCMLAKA

| Compound | inhibition of G9a (G9a) | inhibition of DOT1L (DOT1L) | inhibition of CcrM (CcrM) | inhibition of DNMT1 (DNMT1) |
| --- | --- | --- | --- | --- |
| CC(C)(C)OC(=O)N1CCC(CCCNc2ncnc3c2ncn3[C@@H]2O[C@H](CO)[C@@H](O)[C@H]2O)CC1 [Compound 39, tert-Butyl-4-(3-((9-((2R,3R,4S,5R)-3,4-dihydroxy-5-(hydroxymethyl)tetrahydrofuran-2-yl)-9H-purin-6-yl)amino)propyl)piperidine-1-carboxylate] | none of them showed any significant inhibition | none of them showed any significant inhibition | none of them showed any significant inhibition | none of them showed any significant inhibition |
| OC[C@H]1O[C@@H](n2cnc3c(NCCCc4ccc(O)cc4)ncnc32)[C@H](O)[C@@H]1O [Compound 16, (2R,3S,4R,5R)-2-(Hydroxymethyl)-5-(6-((3-(4-hydroxyphenyl)propyl)amino)-9H-purin-9-yl)tetrahydrofuran-3,4-diol] | none of them showed any significant inhibition | none of them showed any significant inhibition | none of them showed any significant inhibition | none of them showed any significant inhibition |
